Measurements taken from ChEMBL document CHEMBL1201862, “PubChem BioAssay data set” (2004).
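Test compounds were applied to cells in 96-well plates for 48 hours at 5 doses. GI50: concentration for 50% inhibition of growth.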 Active and inactive are the calls of the source. No stated cut-off is given here; in the data, active = GI50 up to about 1.1 µM and inactive = higher.

Assays:
Assay in all cases: NCI anticancer screen, dose series, 48 h
[1] = test system: U-251
[2] = test system: NCI-H460
[3] = test system: A549
[4] = test system: EKVX
[5] = test system: 786-0
[6] = test system: MOLT-4
[7] = test system: RXF 393
[8] = test system: HCT-116
[9] = test system: ACHN
[10] = test system: HL-60
[11] = test system: Hs-578T
[12] = test system: SF-268
[13] = test system: HCT-15
[14] = test system: UO-31
[15] = test system: BT-549
[16] = test system: MCF7
[17] = test system: SK-MEL-5
[18] = test system: DU-145
[19] = test system: SNB-75
[20] = test system: HCC 2998

SMILES	GI50 [1]	GI50 [2]	GI50 [3]	GI50 [4]	GI50 [5]	GI50 [6]	GI50 [7]	GI50 [8]	GI50 [9]	GI50 [10]	GI50 [11]	GI50 [12]	GI50 [13] [µM]	GI50 [14]	GI50 [15]	GI50 [16]	GI50 [17]	GI50 [18]	GI50 [19]	GI50 [20]
NC12CC3C4CC5(N)CC3C(C1)C(C5)C4C2	> 100 µM (inactive)	> 100 µM (inactive)	> 100 µM (inactive)	> 100 µM (inactive)	> 100 µM (inactive)	> 100 µM (inactive)	> 100 µM (inactive)	> 100 µM (inactive)	> 100 µM (inactive)	> 100 µM (inactive)	> 100 µM (inactive)	> 100 µM (inactive)	> 100	> 100 µM (inactive)	> 100 µM (inactive)	> 100 µM (inactive)	> 100 µM (inactive)	–	–	–
COC(=O)CCC1(C)C2CCC1/C(=N/O)C2 (centres undefined)	> 100 µM (inactive)	–	> 100 µM (inactive)	> 100 µM (inactive)	> 100 µM (inactive)	> 100 µM (inactive)	> 100 µM (inactive)	> 100 µM (inactive)	> 100 µM (inactive)	–	> 100 µM (inactive)	> 100 µM (inactive)	> 100	> 100 µM (inactive)	> 100 µM (inactive)	> 100 µM (inactive)	> 100 µM (inactive)	> 100 µM (inactive)	> 100 µM (inactive)	> 100 µM (inactive)
CCCCCC(/C=N/NC(N)=S)C(O)(C(F)(F)F)C(F)(F)F (centres undefined)	> 10 µM (inactive)	> 10 µM (inactive)	> 10 µM (inactive)	> 10 µM (inactive)	> 10 µM (inactive)	> 10 µM (inactive)	> 10 µM (inactive)	> 10 µM (inactive)	> 10 µM (inactive)	–	> 10 µM (inactive)	> 10 µM (inactive)	> 10	–	> 10 µM (inactive)	> 10 µM (inactive)	> 10 µM (inactive)	> 10 µM (inactive)	> 10 µM (inactive)	> 10 µM (inactive)
O=c1[nH]c(=O)n(C2CC(O)C(CO)O2)c2nc3ccc4cc5ccccc5cc4c3nc12 (centres undefined)	> 100 µM (inactive)	–	> 100 µM (inactive)	> 100 µM (inactive)	> 100 µM (inactive)	> 100 µM (inactive)	> 100 µM (inactive)	> 100 µM (inactive)	> 100 µM (inactive)	–	> 100 µM (inactive)	> 100 µM (inactive)	> 100	> 100 µM (inactive)	> 100 µM (inactive)	> 100 µM (inactive)	> 100 µM (inactive)	> 100 µM (inactive)	> 100 µM (inactive)	> 100 µM (inactive)
O=C(Nc1sccc1S(=O)(=O)c1ccc(Cl)cc1)C(F)(F)F	34.6 µM (inactive)	27.4 µM (inactive)	29.2 µM (inactive)	40.7 µM (inactive)	17 µM (inactive)	15 µM (inactive)	–	14.1 µM (inactive)	43 µM (inactive)	–	18.7 µM (inactive)	17.5 µM (inactive)	29.5	25.1 µM (inactive)	58.5 µM (inactive)	28.8 µM (inactive)	16 µM (inactive)	31.6 µM (inactive)	20.9 µM (inactive)	22.9 µM (inactive)
COC(=O)C1C(=O)CC(C)(O)C(C(=O)OC)C1c1ccc(N(C)C)cc1 (centres undefined)	> 100 µM (inactive)	> 100 µM (inactive)	> 100 µM (inactive)	> 100 µM (inactive)	12 µM (inactive)	> 100 µM (inactive)	> 100 µM (inactive)	8.67 µM (inactive)	> 100 µM (inactive)	> 100 µM (inactive)	–	> 100 µM (inactive)	> 100	> 100 µM (inactive)	> 100 µM (inactive)	> 100 µM (inactive)	> 100 µM (inactive)	> 100 µM (inactive)	> 100 µM (inactive)	> 100 µM (inactive)
Cn1c(=O)cc(NNc2ccc(Br)cc2)[nH]c1=O	3.05 µM (inactive)	4.26 µM (inactive)	13.9 µM (inactive)	16.5 µM (inactive)	9.59 µM (inactive)	0.558 µM (active)	–	10.4 µM (inactive)	14 µM (inactive)	2.99 µM (inactive)	3.88 µM (inactive)	–	6.71	16.4 µM (inactive)	16.9 µM (inactive)	10.4 µM (inactive)	16.6 µM (inactive)	6.55 µM (inactive)	–	4.59 µM (inactive)
Cc1ccc(CC2(C(=O)O)Cc3ccc(C)cc3C2)cc1 (centres undefined)	71.3 µM (inactive)	> 100 µM (inactive)	72.9 µM (inactive)	55.3 µM (inactive)	> 100 µM (inactive)	> 100 µM (inactive)	–	> 100 µM (inactive)	94.4 µM (inactive)	> 100 µM (inactive)	> 100 µM (inactive)	> 100 µM (inactive)	54	> 100 µM (inactive)	65.3 µM (inactive)	> 100 µM (inactive)	> 100 µM (inactive)	> 100 µM (inactive)	> 100 µM (inactive)	> 100 µM (inactive)
